# Experimental data taken from patent publication US20090156657A1, “ANTI-INFLAMMATORY COMPOSITION” (Ajinomoto Co., Inc., priority 2006, published 2009).
# Tested on: IBD model mice (IL-10 deficient cell-transplanted SCID mice)
# Assay: Inflammatory bowel disease (IBD) model mouse: large intestine and blood cell counts
# Assay type: in vivo
# Conditions: diet 3 weeks, vs Control group
# From the text: Immunopharmacol., 5, 993-1006 (2005)).
# 4 days before IL-10 deficient cell transplantation, total 40 SCID mice (7-week-old, were divided into the following 4 groups 1) to 4) (10 mice in each group) and acclimation to a control diet was simultaneously started. Immediately after cell transfer, the feed was changed to the test diet shown in Table 4, and free ingestion was allowed for 3 weeks. The safflower seed extract powder was the same as that in Example 8, and contained 50 wt % of γ-cyclodextrin. N-Feruloylserotonin (FS) was synthesized according to the method of Experimental Example 1. During the test diet ingestion period, the body weight, the amount of ingested feed and the amount of water drunk were measured 3 times a week to monitor the onset of the disease.
# 1) Normal group (normal SCID mice×control diet) 2) Control group (IL-10 deficient cell-transplanted SCID mice×control diet) 3) SSE group (IL-10 deficient cell-transplanted SCID mice×SSE diet*) 4) FS group (IL-10 deficient cell-transplanted SCID mice×FS diet**) *containing FS and p-coumaroyl serotonin (CS) at 0.10 and 0.13 wt %, respectively (based on aglycone) (total serotonin derivative content=[…]) **containing 0.4 wt % of FS aglycone
# After the completion of the test diet ingestion period, blood samples were collected under anesthesia, and the length of the isolated large intestine (appendix—anus) and the weight thereof (after washing the contents) were measured. Using the obtained data, t-test was first conducted between the Normal group and the Control group and, after confirmation of the effectiveness of the test, variance analyses were performed between the Control group and each of SSE and FS groups, and the effect of the test substance was compared by Dunnett-test.
compound,measurement,setting,value
"COc1cc(/C=C/C(=O)NCCc2c[nH]c3ccc(O)cc23)ccc1O [FS, N-feruloyl serotonin]",large intestine weight,FIG. 11B,significantly lower values
same,large intestine weight per unit intestine length,FIG. 11C,significantly lower values
same,platelet count,FIG. 12B,significantly lower
same,leukocyte count,"not statistically significant, FIG. 12A",tendency toward lower values
same,neutrophil count,"not statistically significant, FIG. 12C",tendency toward lower values
same,monocyte count,"not statistically significant, FIG. 12D",tendency toward lower values
